According to patent US20260309717A1, “PROXIMITY INDUCING SYSTEM AND USES THEREOF” (SORBONNE UNIVERSITE, priority 2022, published 2026):

How the values were obtained:
[1] = target: T1, ^FIREmate and ^FIREtag (TOM20-ECFP-^FIREmate / mCherry-^FIREtag) (Halorhodospira halophila, UniProt P16113, A30V/C69G/D97P/F96I, form not given/G21E/G25R/K17N/M100R/M109L/Q41L/Q99S/S72T/T101G/V83A/Y94W/Y98T); assay: Stability of the ternary assembly over time at mitochondria, time-lapse confocal microscopy, U2OS cells; assay type: cell-based; settings: 10 μM; 1 image every 2 minutes
T1 construct: TOM20(1-34)-ECFP-FIREmate and mCherry-FIREtag in HeLa or U2OS cells
T1 sequence (P16113 1-114 A30V/C69G/D97P/F96I/G21E/G25R/K17N/M100R/M109L/Q41L/Q99S/S72T/T101G/V83A/Y94W/Y98T): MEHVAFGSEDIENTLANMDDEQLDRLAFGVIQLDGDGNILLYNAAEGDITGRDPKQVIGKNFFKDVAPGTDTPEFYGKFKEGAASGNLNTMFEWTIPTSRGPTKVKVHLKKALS
Method: FIGS. 4A-D illustrate the recruitment over time of cytoplasmic proteins to mitochondria with the proximity inducing system described herein. (4A, C) HeLa cells co-expressing mCherry-^FIREtag and Tom20-ECFP-^FIREmate were treated with 10 μM HBR-2,5DM and imaged by time-lapse confocal microscopy at 1 image per 5 seconds. (4B, D) U2OS cells co-expressing mCherry-^FIREtag and Tom20-ECFP-^FIREmate were treated with 10 μM HBR-2,5DM and imaged by time-lapse confocal microscopy at 1 image every 2 minutes. FIG. 4A is a representative time-lapse of the HeLa cells from the addition of HBR-2,5DM at 0 sec (ex/em 488/508-570 nm). […] Scale bars are 20 μm. FIG. 4B is a representative time-lapse of the U2OS cells from the addition of HBR-2,5DM at 0 min (mCherry: ex/em 561/606-675 nm; FIRE: ex/em 488/508-570 nm; ECFP: ex/em 445/455-499 nm). […] Scale bars are 20 μm. FIG. 4C is a graph showing the temporal evolution of the FIRE signal detected in HeLa cells upon addition of HBR-2,5DM at 0 sec. […] FIG. 4D is a graph showing the temporal evolution of the FIRE signal detected in U2OS cells upon addition of HBR-2,5DM at 0 min. […]
The confocal micrographs were acquired on a Zeiss LSM 980 Laser Scanning Microscope equipped with a plan apochromat 63x/1.4 NA oil immersion objective. […] The images were analyzed using Icy (2.4.0.0) and Fiji (Image J). […]

[2] = target: T2, mCherry-^FIREtag / Lyn11-ECFP-^FIREmate (Halorhodospira halophila, UniProt P16113, A30V/C69G/D97P/F96I, form not given/G21E/G25R/K17N/M100R/M109L/Q41L/Q99S/S72T/T101G/V83A/Y94W/Y98T); assay: Recruitment of cytoplasmic protein to the plasma membrane, HEK293 cells; assay type: cell-based; settings: 10 μM
T2 construct: Lyn11-ECFP-FIREmate and mCherry-FIREtag in HEK293 cells
T2 sequence (P16113 1-114 A30V/C69G/D97P/F96I/G21E/G25R/K17N/M100R/M109L/Q41L/Q99S/S72T/T101G/V83A/Y94W/Y98T): T1 sequence (P16113 1-114 A30V/C69G/D97P/F96I/G21E/G25R/K17N/M100R/M109L/Q41L/Q99S/S72T/T101G/V83A/Y94W/Y98T)
Method: FIGS. 8A-E illustrate the recruitment of cytoplasmic proteins to the plasma membrane with the proximity inducing system described herein. FIG. 8A is a representation of the experimental design wherein HEK293 cells co-expressing mCherry-^FIREtag and Lyn11-ECFP-^FIREmate were treated with 10 μM of match (either HBR-2,5DM or HMBR), and imaged by time-lapse confocal microscopy. FIGS. 8B-C are graphs showing the temporal evolution of the FIRE signal detected upon addition at 0 min of HBR-2,5DM (match1-8B) or HMBR (match2-8C). Data represents the mean values±SD of 22 cells from n=3 independent experiments (8B, D), or of 30 cells from n=3 independent experiments (8C, E). FIGS. 8D-E are sets of representative confocal micrographs of cells before (0 min) and after (5 min) addition of HBR-2,5DM (match1-8D) or HMBR (match2-8E) (mCherry: ex/em 561/606-675 nm; FIRE: ex/em 488/508-570 nm; ECFP: ex/em 445/455-499 nm). […] Scale bars are 20 μm.
The confocal micrographs were acquired on a Zeiss LSM 980 Laser Scanning Microscope equipped with a plan apochromat 63x/1.4 NA oil immersion objective. ZEN software was used to collect the data. The images were analyzed using Icy (2.4.0.0) and Fiji (Image J). In short, to track fluorescence signal in a specific organelle, a ROI (region of interest) was determined by masking the signal in the ECFP (Enhanced Cyan Fluorescent Protein) channel with the plug-in HK-means with the following parameters: intensity class equals 100, minimum object size (pixels or px) equals 500, maximum object size (px) equals 1500-3000. The signal intensity of the ROI was tracked over time for each channel by using plug-in Active Contours. The background signal was subtracted. Data were processed using GraphPad Prism v9.3.0.
To further evaluate the scope of the proximity inducing system described herein and show its versatility, ^FIREmate was anchored at the membrane of various organelles or cellular structures so that ^FIREmate faced the cytosol. ^FIREmate was thus fused: • to the N-terminus of the transmembrane domain (amino acid residues at positions 3131-3259) of Giantin for location at the cis-medial rims of the Golgi apparatus (FIG. 6A), • to the N-terminus of the transmembrane domain (amino acid residues at positions 100-134) of the cytochrome b5 (Cb5) for location at the endoplasmic reticulum membrane (FIG. 7A), and • to the C-terminus of the Lyn11 inner membrane targeting sequence for location at the plasma membrane (FIG. 8A).
For each construct, an ECFP was inserted between ^FIREmate and the other protein domain/sequence to monitor the localization of the resulting fusion protein (blue fluorescence). Each fusion protein was co-expressed in mammalian cells (HeLa cells or HEK293 cells as indicated) together with mCherry-^FIREtag (red fluorescence). […]

## Cc1cc(/C=C2\SC(=S)NC2=O)c(C)cc1O [HBR-2,5DM, (Z)-5-(4-hydroxy-2,5-dimethylbenzylidene)-2-thioxo-1,3-thiazolidin-4-one]
[1]
  duration of fluorescence detected (stability of the ternary fluorescent assembly): more than 25 minutes
[2]
  FIRE signal at the plasma membrane: simultaneous appearance of green fluorescence
  translocation of mCherry-^FIREtag to the plasma membrane: rapid translocation of mCherry-^FIREtag to the organelle
